Assay results from US9067894B1, “Compound, composition, and method of activating GIRK potassium channel and use of same for treating conditions of interest” (Vanderbilt University, priority 2013, dated 2015).
Values joined by “and” are separate entries in the source; they are usually repeats but may differ in a detail not shown here. Equal values may be shown once.

What was measured:
GIRK1/2 = target: T1, GIRK1/2 (Homo sapiens, UniProt P48051+P48549); assay: Thallium flux, pertussis toxin-treated cells co-expressing mGlu8 and GIRK1/2; assay type: cell-based; set-up: host or cells: HEK-293; details: 600 ng/ml pertussis toxin; VU0456810 10 μM, glutamate 100 μM
T1 sequence (P48549 1-501): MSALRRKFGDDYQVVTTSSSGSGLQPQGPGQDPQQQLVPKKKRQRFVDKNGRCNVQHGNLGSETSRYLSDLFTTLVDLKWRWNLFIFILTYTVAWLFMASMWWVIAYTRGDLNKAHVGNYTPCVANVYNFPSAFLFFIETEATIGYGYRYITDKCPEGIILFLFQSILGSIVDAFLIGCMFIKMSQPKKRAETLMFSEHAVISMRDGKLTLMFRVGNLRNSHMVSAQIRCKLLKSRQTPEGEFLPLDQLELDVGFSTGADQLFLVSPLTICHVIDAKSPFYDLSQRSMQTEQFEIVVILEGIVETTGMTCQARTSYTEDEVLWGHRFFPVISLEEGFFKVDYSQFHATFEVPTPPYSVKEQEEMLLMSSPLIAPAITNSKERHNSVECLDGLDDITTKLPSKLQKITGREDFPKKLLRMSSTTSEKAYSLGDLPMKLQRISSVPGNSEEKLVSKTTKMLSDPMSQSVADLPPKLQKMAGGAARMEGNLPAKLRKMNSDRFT
T1 sequence (P48051 1-423): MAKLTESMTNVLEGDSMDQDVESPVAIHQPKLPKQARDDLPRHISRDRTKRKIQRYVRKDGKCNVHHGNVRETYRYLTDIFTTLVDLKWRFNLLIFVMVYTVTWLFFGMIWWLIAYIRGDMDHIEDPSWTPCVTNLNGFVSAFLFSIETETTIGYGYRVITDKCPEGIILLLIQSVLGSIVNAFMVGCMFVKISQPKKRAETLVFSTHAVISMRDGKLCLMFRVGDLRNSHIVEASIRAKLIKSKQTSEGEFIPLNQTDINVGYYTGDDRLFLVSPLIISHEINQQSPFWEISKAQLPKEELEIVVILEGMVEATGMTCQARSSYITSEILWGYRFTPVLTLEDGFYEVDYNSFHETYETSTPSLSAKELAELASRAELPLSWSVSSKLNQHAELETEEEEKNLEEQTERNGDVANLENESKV
Text: Cell Line Construction and Cell Culture. HEK-293 cells co-expressing human GIRK1/2 and rat mGlu8 were generated as previously described (Niswender et al., 2008). A HEK-293 cell line (ATCC, Manassas, Va.) expressing human GIRK1 and human GIRK2 was constructed by transfecting HEK-293 cells with GIRK1 and GIRK2 (Origene, Rockville, Md.) cloned into the pBudCE4.1 vector (Life Technologies, Carlsbad, Calif.) using FuGene 6 (Promega, Madison, Wis.) transfection reagent. Unless otherwise noted, other ion channel-expressing cells were prepared by transfecting HEK-293 cells with individual or combinations of subunits: GIRK1, pCMV6-A-BSD; GIRK2, pCMV6-A-puro; GIRK3, pCMV6-A-hygro; GIRK4, pCMV6-A-AC; Kv7.4, pIRESneo3. The Kir2.1 and hERG-expressing cell lines were made by transfecting T-REx-293 cells (Life Technologies, Carlsbad, Calif.) with Kir2.1 and Kv11.1, respectively, cloned into pcDNA5TO. Monoclonal cell lines were produced by limiting-dilution cloning of antibiotic-resistant cells and functional selection using the thallium flux assay described below. Unless otherwise noted, cells were maintained in Minimal Essential Medium, Alpha Medium (Mediatech, Manassas, Va.) supplemented with 10% fetal bovine serum (Sigma-Aldrich, Saint Louis, Mo.) and GlutaGro (Mediatech, Manassas, Va.), referred to henceforth as cell culture medium. […]

GIRK = details: read-out: potency / reported EC50 as GIRK activator; cited from earlier work
[1] = Pentylenetetrazol (PTZ)-induced seizure model; assay type: in vivo, mouse; details: mice, i.p.; VU0456810 60 mg/kg, sodium valproate 150 mg/kg; PTZ 40 mg/kg; 20 minute timeframe
Description: After thirty minutes, PTZ was administered intraperitoneally (i.p., 40 mg/kg). Immediately following administration of PTZ, the amount of time elapsed before the first occurrence of tremors, tonic-clonic seizures, convulsion, and death was recorded. All mice were subject to a 20-minute post-[…] cutoff.
(§1) In all cases, experiments were conducted in a blind manner with respect to the experimenters. Data were evaluated in Excel using one-tailed, unpaired Student's t-test, assuming populations with unequal variance.

[2] = Maximal electroshock (MES) model of epilepsy; assay type: in vivo, mouse; details: mice, i.p.; VU0456810 60 mg/kg, sodium valproate 150 mg/kg; vs vehicle
Description: MES stimulation was applied, 30 minutes after injection, through transauricular (ear-clip) electrodes from an electroshock apparatus, HSE Shock Stimulator Type 221, (Harvard Apparatus, Holliston, Mass.) using the following parameters: 100-mA fixed current, a 50-60-Hz pulse frequency, a 0.6-ms pulse width and a 0.3-s stimulus duration. Animals were restrained by hand when applying the electrodes and released at the moment of stimulation to permit observation of the seizure throughout its entire course. Upon completion of the electrical stimulus, the amount of time until death was recorded. […] In this modified MES test, the electrical stimulus that was applied was sufficient to induce seizures and death from maximal seizure in 100% of the control mice.
as §1

N[C@@H](CCC(=O)O)C(=O)O [glutamate, reference compound]
effect of pertussis toxin treatment on evoked thallium flux (GIRK1/2): abolishing

C[C@@H]1O[C@@H](O[C@H]2[C@H](Oc3cc(O)c4c(c3)O[C@H](c3ccc(O)cc3)CC4=O)O[C@H](CO)[C@@H](O)[C@@H]2O)[C@H](O)[C@H](O)[C@H]1O [naringin]
EC50 (GIRK): ~100 µM and > 100 µM

CCCC(CCC)C(=O)[O-].[Na+] [sodium valproate, reference compound]
animals experiencing convulsions from PTZ treatment [1]: significant decrease | animals surviving PTZ treatment [1]: significant increase | latency of seizure onset [2]: highly significant delays in seizure onset
